Measurements: US20080051429A1, “USE OF 4-AMINO-PIPERIDINES FOR TREATING SLEEP DISORDERS” (priority 2006, published 2008)
pIC50: −log10 of the molar value. Counter-ions that a name gives are not always drawn. Like-named read-outs stand apart in the source and are kept apart here.

Assays:
[1] = molecular target: T1, 5-HT2A receptor (Homo sapiens, UniProt P28223); test: R-SAT functional receptor assay; type: cell-based
T1 construct: expressed in transfected cells; host or cells: NIH3T3 cells, pSI expression vector
T1 sequence (P28223 whole entry): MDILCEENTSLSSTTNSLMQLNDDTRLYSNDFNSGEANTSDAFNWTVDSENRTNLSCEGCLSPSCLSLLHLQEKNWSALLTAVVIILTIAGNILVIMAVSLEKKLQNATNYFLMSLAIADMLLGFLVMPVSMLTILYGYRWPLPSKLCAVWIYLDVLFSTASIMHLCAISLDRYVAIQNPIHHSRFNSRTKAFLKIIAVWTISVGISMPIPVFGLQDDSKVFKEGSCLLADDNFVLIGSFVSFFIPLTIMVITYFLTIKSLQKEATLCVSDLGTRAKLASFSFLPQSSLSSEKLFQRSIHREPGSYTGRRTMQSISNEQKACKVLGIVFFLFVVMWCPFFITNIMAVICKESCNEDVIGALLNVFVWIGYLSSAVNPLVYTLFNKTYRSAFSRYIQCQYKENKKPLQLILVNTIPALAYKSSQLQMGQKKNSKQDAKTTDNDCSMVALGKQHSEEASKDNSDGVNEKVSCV

[2] = molecular target: T2, 5HT1A (Rattus norvegicus, UniProt P19327); test: R-SAT selectivity profile; type: cell-based; conditions: antagonist
T2 construct: expressed in transfected cells
T2 sequence (P19327 whole entry): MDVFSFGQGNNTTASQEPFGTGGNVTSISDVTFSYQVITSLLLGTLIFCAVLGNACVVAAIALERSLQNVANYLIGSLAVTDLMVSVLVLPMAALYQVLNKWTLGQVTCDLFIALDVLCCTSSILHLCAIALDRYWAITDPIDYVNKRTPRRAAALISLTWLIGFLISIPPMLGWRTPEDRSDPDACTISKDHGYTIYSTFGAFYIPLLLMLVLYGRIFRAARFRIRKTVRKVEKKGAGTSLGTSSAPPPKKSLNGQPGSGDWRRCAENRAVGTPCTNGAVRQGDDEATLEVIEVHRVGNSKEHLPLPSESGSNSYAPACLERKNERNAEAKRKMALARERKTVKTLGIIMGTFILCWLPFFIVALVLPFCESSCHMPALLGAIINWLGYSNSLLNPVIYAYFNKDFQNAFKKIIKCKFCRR
Procedure: (§1) The functional receptor assay, Receptor Selection and Amplification Technology (R-SAT), was used (with minor modifications from that previously described U.S. Pat. No. 5,707,798) to screen compounds for efficacy at the 5-HT2A receptor. Briefly, NIH3T3 cells were grown in 96 well tissue culture plates to 70-80% confluence. Cells were transfected for 12-16 hours with plasmid DNAs using superfect (Qiagen Inc.) as per manufacture's protocols. R-SAT's were generally performed with 50 ng/well of receptor and 20 ng/well of Beta-galactosidase plasmid DNA. All receptor and G-protein constructs used were in the pSI mammalian expression vector (Promega Inc) as described in U.S. Pat. No. 5,707,798. The 5HT2A receptor gene was amplified by nested PCR from brain cDNA using the oligodeoxynucleotides based on the published sequence (see Saltzman et. al. Biochem. Biophys. Res. Comm. 181:1469-78 (1991)). Large-scale transfections, cells were transfected for 12-16 hours, then trypsinized and frozen in DMSO. Frozen cells were later thawed, plated at 10,000-40,000 cells per well of a 96 well plate that contained drug. With both methods, cells were then grown in a humidified atmosphere with 5% ambient CO2 for five days. Media was then removed from the plates and marker gene activity was measured by the addition of the beta-galactosidase substrate ONPG (in PBS with 5% NP-40). The resulting colorimetric reaction was measured in a spectrophotometric plate reader (Titertek Inc.)at […]. All data were analyzed using the computer program XLFit (IDBSm). Efficacy is the percent maximal repression compared to repression by a control compound (ritanserin in the case of 5HT2A). pIC50 is the negative of the log(IC50), where IC50 is the calculated concentration in Molar that produces 50% maximal repression.
(§2) R-SAT assays (as described in Example 42) were carried out with cells transfected with receptors (listed below) to determine the receptor selectivity profile for compound 26HCH16D. 5HT2A inverse agonist data (IC50 nM; % efficacy) were derived from detailed dose response curves (7 points in triplicate).

[3] = molecular target: T3, alpha1a/D (Rattus norvegicus, UniProt P23944); test: R-SAT selectivity profile; type: cell-based
T3 construct: expressed in transfected cells
T3 sequence (P23944 whole entry): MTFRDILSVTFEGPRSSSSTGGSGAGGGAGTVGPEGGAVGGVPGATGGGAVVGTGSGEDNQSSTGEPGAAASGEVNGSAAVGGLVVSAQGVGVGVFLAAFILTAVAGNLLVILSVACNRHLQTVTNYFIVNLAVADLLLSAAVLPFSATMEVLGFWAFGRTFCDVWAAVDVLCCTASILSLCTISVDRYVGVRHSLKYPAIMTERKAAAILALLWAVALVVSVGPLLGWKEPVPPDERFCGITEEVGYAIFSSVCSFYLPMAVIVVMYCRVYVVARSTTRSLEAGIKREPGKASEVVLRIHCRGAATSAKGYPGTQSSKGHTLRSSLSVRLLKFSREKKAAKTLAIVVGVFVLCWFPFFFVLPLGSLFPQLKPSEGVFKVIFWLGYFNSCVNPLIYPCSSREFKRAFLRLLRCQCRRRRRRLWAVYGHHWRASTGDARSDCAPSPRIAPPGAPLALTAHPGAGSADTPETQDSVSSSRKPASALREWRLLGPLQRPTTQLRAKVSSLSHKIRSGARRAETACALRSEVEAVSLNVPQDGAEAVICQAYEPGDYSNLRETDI
Procedure: as §1, §2

[4] = molecular target: T4, alpha1c/A (Homo sapiens, UniProt P35348); test: R-SAT selectivity profile; type: cell-based
T4 construct: expressed in transfected cells
T4 sequence (P35348 1-466): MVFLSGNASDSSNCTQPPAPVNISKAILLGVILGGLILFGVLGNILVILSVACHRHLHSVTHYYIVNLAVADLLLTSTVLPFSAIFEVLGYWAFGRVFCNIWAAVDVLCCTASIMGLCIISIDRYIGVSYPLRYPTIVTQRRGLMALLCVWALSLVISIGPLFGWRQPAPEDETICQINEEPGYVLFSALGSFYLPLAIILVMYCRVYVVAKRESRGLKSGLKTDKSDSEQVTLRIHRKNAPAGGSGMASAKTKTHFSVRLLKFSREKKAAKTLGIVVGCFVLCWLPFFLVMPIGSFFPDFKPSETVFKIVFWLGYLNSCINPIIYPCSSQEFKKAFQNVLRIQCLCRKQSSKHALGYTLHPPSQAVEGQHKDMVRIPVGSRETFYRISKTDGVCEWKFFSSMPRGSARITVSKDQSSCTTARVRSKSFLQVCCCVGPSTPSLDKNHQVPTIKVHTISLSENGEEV
Procedure: as §1, §2

[5] = molecular target: T5, alpha1b/B (Mesocricetus auratus, UniProt P18841); test: R-SAT selectivity profile; type: cell-based, hamster
T5 construct: expressed in transfected cells
T5 sequence (P18841 whole entry): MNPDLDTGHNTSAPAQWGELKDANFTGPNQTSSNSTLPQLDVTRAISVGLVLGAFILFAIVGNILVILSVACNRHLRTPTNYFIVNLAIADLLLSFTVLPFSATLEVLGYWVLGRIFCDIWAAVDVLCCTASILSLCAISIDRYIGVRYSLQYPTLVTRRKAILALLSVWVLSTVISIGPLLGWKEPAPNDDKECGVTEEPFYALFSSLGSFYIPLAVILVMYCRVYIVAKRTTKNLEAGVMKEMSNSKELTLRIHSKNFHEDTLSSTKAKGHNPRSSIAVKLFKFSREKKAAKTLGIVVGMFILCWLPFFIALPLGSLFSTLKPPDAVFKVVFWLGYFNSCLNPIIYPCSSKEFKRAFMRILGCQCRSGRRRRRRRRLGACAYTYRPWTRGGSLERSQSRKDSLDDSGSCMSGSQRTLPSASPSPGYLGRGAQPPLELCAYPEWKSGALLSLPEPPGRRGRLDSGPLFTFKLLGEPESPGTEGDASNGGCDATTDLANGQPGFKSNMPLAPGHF
Procedure: as §1, with “Frozen cells were later thawed, plated at 10,000-40,000 cells per well of a 96 well plate that contained drug. With both methods, cells were then grown in a humidified atmosphere with 5% ambient CO2 for five days.” left out, “Efficacy is the percent maximal repression compared to repression by a control compound (ritanserin in the case of 5HT2A). pIC50 is the negative of the log(IC50), where IC50 is the calculated concentration in Molar that produces 50% maximal repression.” left out

[6] = molecular target: T6, 5HT1A (Homo sapiens, UniProt P08908); test: R-SAT selectivity profile; type: cell-based; parameters: expressed in transfected cells; conditions: agonist
T6 sequence (P08908 1-422): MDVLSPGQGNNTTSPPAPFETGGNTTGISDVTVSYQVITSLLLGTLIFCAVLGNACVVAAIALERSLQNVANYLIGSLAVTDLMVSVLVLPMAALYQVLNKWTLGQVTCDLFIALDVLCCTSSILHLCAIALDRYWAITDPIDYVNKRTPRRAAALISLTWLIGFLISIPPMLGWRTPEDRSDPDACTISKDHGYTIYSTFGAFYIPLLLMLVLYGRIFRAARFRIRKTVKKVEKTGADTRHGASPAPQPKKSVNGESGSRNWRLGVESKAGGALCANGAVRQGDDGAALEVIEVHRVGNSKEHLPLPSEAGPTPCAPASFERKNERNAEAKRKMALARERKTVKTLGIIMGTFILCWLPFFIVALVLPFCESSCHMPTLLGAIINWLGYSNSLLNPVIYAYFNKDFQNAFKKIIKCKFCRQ
Procedure: as §1, §2

[7] = molecular target: 5HT1E (Homo sapiens, UniProt P28566); test: R-SAT selectivity profile; type: cell-based; parameters: expressed in transfected cells; conditions: agonist
5HT1E, sequence (P28566 whole entry): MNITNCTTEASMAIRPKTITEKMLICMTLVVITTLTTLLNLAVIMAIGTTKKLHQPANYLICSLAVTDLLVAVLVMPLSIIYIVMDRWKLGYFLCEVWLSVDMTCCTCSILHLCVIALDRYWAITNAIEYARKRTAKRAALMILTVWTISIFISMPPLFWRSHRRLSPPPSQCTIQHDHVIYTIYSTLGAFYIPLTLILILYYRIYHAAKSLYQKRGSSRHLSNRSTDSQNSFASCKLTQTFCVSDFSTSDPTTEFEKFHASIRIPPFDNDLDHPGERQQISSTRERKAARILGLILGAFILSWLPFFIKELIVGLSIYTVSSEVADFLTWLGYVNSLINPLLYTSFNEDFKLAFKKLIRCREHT
Procedure: as §1, §2

[8] = molecular target: 5HT2B (Homo sapiens, UniProt P41595); test: R-SAT selectivity profile; type: cell-based; parameters: expressed in transfected cells
5HT2B, sequence (P41595 whole entry): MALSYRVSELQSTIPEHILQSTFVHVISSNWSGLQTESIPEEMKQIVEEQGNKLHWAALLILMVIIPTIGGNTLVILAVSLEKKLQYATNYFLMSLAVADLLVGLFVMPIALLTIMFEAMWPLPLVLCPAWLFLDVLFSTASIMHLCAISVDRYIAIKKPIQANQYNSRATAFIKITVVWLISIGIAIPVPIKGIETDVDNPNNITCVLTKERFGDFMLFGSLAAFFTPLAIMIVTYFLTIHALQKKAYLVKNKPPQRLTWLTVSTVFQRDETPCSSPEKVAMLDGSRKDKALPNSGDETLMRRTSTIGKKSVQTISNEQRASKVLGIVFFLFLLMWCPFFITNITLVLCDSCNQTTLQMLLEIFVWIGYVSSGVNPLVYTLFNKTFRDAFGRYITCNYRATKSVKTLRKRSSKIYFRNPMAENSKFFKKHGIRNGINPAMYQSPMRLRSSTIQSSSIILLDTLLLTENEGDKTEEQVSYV
Procedure: as §1, §2

[9] = molecular target: T7, 5HT2C (Homo sapiens, UniProt P28335); test: R-SAT selectivity profile; type: cell-based; parameters: expressed in transfected cells
T7 sequence (P28335 33-458): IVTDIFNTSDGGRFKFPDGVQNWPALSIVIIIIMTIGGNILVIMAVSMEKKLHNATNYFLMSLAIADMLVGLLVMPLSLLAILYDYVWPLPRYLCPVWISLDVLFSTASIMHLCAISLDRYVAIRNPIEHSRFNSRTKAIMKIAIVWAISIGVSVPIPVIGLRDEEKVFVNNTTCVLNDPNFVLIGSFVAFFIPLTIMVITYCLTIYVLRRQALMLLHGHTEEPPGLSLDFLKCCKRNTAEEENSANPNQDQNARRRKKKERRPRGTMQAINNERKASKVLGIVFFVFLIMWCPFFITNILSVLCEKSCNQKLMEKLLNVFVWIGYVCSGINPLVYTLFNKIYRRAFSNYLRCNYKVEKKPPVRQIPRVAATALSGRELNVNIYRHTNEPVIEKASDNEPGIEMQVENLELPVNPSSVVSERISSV
Procedure: as §1, §2

[10] = molecular target: D2 (Homo sapiens, UniProt P14416); test: R-SAT selectivity profile; type: cell-based; parameters: expressed in transfected cells
D2, sequence (P14416 whole entry): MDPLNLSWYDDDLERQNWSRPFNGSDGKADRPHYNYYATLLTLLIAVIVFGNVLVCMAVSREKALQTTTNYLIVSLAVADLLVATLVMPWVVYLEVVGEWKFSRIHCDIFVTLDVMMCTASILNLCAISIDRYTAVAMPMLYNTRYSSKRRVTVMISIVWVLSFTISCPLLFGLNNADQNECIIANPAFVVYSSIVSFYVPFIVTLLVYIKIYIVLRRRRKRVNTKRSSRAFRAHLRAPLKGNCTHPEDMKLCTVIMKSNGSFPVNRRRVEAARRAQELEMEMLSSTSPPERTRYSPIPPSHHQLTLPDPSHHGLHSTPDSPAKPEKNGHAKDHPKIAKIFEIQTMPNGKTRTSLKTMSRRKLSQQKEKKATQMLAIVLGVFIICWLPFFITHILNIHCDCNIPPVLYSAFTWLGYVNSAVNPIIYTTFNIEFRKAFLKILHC
Procedure: as §1, §2

[11] = molecular target: H1 (Homo sapiens, UniProt P35367); test: R-SAT selectivity profile; type: cell-based; parameters: expressed in transfected cells
H1, sequence (P35367 whole entry): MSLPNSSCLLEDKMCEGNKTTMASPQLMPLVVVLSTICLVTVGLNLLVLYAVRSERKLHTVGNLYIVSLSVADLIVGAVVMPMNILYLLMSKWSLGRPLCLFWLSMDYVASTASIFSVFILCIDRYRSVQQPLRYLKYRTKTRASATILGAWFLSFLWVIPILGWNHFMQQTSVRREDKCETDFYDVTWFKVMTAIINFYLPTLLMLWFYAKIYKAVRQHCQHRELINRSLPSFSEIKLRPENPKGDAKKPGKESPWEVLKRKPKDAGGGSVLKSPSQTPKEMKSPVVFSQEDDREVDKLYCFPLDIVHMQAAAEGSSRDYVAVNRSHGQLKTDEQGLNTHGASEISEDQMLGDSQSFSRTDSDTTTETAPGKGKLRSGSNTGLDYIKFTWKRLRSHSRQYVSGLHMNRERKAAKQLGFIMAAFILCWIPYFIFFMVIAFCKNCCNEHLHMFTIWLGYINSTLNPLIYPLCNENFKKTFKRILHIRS
Procedure: as §1, §2

[12] = test system: Male NSA mice; test: In vivo determination of behavioral effects (motor activity, MK-801 hyperactivity); conditions: p.o.; minimum effective dose vs vehicle control
Procedure: Male NSA mice (Harlan; San Deigo, Calif.) were used as subjects. Mice weighed 20-30 g. Animals were housed 8/cage in the One Cage system (One Cage; Lab Products, Inc., Seaford, Del.) with bedding (⅛ inch Bed “O” Cob; Harlan Teklad, Madison, Wis.) in a room with controlled temperature 22±3° C. and a 12 hour light:dark cycle (lights on 6 am). Water and standard rodent chow (Harlan Teklad) were continuously available in the home cage. For testing, plastic locomotor activity cages (20×20×30 cm; AccuScan Instruments, Columbus, Ohio) were equipped with photocell beams for monitoring horizontal activity. Data were collected using Versamax computer software (AccuScan Instruments). For determination of spontaneous activity, test compounds were administered alone (s.c. 10 min or p.o. 30 min before the session). For hyperactivity experiments, mice were injected with 0.3 mg/kg MK-8011.p. 15 min precession (the peak dose for producing hyperactivity in an inverted-U dose-effect curve as determined in pilot experiments) in combination with vehicle or test compound. Motor activity data were collected during a 15 min session in a lit room. Mice had no prior exposure to the motor cages. Each dose or dose combination was tested in a separate group of mice (n=8). Distance traveled (cm) was calculated and averaged across animals in a group. […]

## Cc1ccc(CN(C(=O)NCc2ccccc2)C2CCN(Cc3ccccc3)CC2)cc1 [Example 26HCH16D, N-((4-Methylphenyl)methyl)-N-(1-(phenylmethyl)piperidin-4-yl)-N′-phenylmethylcarbamide hydrochloride]
[1]; IC50, Inverse Agonist, 7 points in triplicate
  pIC50: 9.05
[1]; in words
  selectivity as 5-HT2A inverse agonist: highly selective
[1]; read-out: % efficacy
  Emax: 79%
[2]
  Efficacy: nr (nr=activity less than 30% at all doses tested (3, 30, 300, 3000 nM), therefore EC50/IC50 greater than 3000 nM)
[3]; agonist
  Efficacy: nr (nr=activity less than 30% at all doses tested (3, 30, 300, 3000 nM), therefore EC50/IC50 greater than 3000 nM)
[3]; antagonist
  Efficacy: nr (nr=activity less than 30% at all doses tested (3, 30, 300, 3000 nM), therefore EC50/IC50 greater than 3000 nM)
[4]; Antagonist, 4 dose profiling
  initial concentration at which at least 30% efficacy observed: 3000 nM
[4]; agonist
  Efficacy: nr (nr=activity less than 30% at all doses tested (3, 30, 300, 3000 nM), therefore EC50/IC50 greater than 3000 nM)
[4]; antagonist
  actual efficacy figure: 46%
[5]; agonist
  Efficacy: nr (nr=activity less than 30% at all doses tested (3, 30, 300, 3000 nM), therefore EC50/IC50 greater than 3000 nM)
[5]; antagonist
  Efficacy: nr (nr=activity less than 30% at all doses tested (3, 30, 300, 3000 nM), therefore EC50/IC50 greater than 3000 nM)
[6]
  Efficacy: nr (nr=activity less than 30% at all doses tested (3, 30, 300, 3000 nM), therefore EC50/IC50 greater than 3000 nM)
[7]
  Efficacy: nr (nr=activity less than 30% at all doses tested (3, 30, 300, 3000 nM), therefore EC50/IC50 greater than 3000 nM)
[8]; Antagonist, 4 dose profiling
  initial concentration at which at least 30% efficacy observed: 3000 nM
[8]; antagonist
  actual efficacy figure: 60%
[9]; Inverse Agonist, 4 dose profiling
  initial concentration at which at least 30% efficacy observed: 3000 nM
[9]; inverse agonist
  actual efficacy figure: 79%
[10]
  actual efficacy figure: 73%
[10]; Antagonist, 4 dose profiling
  initial concentration at which at least 30% efficacy observed: 3000 nM
[10]; agonist
  Efficacy: nr (nr=activity less than 30% at all doses tested (3, 30, 300, 3000 nM), therefore EC50/IC50 greater than 3000 nM)
[11]; Antagonist, 4 dose profiling
  initial concentration at which at least 30% efficacy observed: 3000 nM
[11]; agonist
  Efficacy: nr (nr=activity less than 30% at all doses tested (3, 30, 300, 3000 nM), therefore EC50/IC50 greater than 3000 nM)
[11]; antagonist
  actual efficacy figure: 30%

## CC(C)COc1ccc(CC(=O)N(Cc2ccc(F)cc2)C2CCN(CCCN3C(=O)OC[C@@H]3C(C)C)CC2)cc1.O=C(O)C(=O)O [Example 117NLS01, N-(4-Fluorobenzyl)-2-(4-isobutoxyphenyl)-N-{1-[3-(4-(S)-isopropyl-2-oxo-oxazolidin-3-yl)propyl]piperidin-4-yl}acetamide, oxalate]
[1]; 120 h, read-out: 5HT2A % INH
  Emax: 104%
[1]; Table 5, read-out: 5HT2A pIC50 (converted)
  IC50: 200 pM
[12]
  MED in vivo po: 1 mg/kg
